# Article PMC8882611, “Corylus avellana: A Source of Diarylheptanoids With α-Glucosidase Inhibitory Activity Evaluated by in vitro and in silico Studies” (Frontiers in Plant Science, 2022)
# Assays:
# [1] = target: α-glucosidase enzyme (from Saccharomyces cerevisiae) (Saccharomyces cerevisiae, UniProt P53341); assay: biochemical; settings: substrate 4-nitrophenyl α-D-glucopyranoside, pH 7.0, 37°C; samples 200, 300, 400 μM; mean ± SD of three experiments; read-out: α-Glucosidase inhibitory activity IC50 ± SD
# Description: α-Glucosidase inhibitory activity was evaluated as previously reported ([Kilinc et al., 2020]). Briefly, 0.1 M phosphate buffer at pH 7.0 (150 μL) was added to each well; successively 10 μL of samples, dissolved in MeOH at different concentrations (200, 300, and 400 μM) were added; at this point, the reaction was initiated by the addition of 15 μL of the α-glucosidase enzyme (from Saccharomyces cerevisiae) (2 U/mL) in each well, and the plate was incubated for 5 min at 37°C; after 5 min 75 μL of the substrate (2.5 mM) 4-nitrophenyl α-D-glucopyranoside were added, and successively the plate was incubated for 10 min at 37°C. The absorbance was measured at 405 nm before (T0′) and after the incubation with the enzyme (T10′). […] Negative control absorbance (phosphate buffer in place of the sample) was also recorded. Inhibition of the enzyme was calculated, and the results were expressed as IC50 values. All experiments were carried out in triplicate. IC50 values were calculated through non-linear regression using Graphpad Prism 5 Software and expressed as means ± SD (standard deviation). They were considered statistically significant with values of p < 0.05.
# [2] = test system: H2O2– and H2O2/Fe2+-induced lipid peroxidation; set-up: method as in Masullo et al., 2015b; settings: 10 μM; TBARS assay; ref Masullo et al., 2015b; cited from earlier work
# [3] = test system: plasma proteins; set-up: method as in Cerulli et al., 2021; Masullo et al., 2021; settings: 10 μM, ref Cerulli et al., 2021, Masullo et al.; cited from earlier work
# [4] = test system: Bacillus cereus, Staphylococcus aureus, Escherichia coli and Pseudomonas aeruginosa; set-up: method as in Cerulli et al., 2017; settings: 40 μg/disk; tetracycline as positive control; ref Cerulli et al., 2017; cited from earlier work
# Chain of α-glucosidase enzyme (from Saccharomyces cerevisiae) (P53341 whole entry): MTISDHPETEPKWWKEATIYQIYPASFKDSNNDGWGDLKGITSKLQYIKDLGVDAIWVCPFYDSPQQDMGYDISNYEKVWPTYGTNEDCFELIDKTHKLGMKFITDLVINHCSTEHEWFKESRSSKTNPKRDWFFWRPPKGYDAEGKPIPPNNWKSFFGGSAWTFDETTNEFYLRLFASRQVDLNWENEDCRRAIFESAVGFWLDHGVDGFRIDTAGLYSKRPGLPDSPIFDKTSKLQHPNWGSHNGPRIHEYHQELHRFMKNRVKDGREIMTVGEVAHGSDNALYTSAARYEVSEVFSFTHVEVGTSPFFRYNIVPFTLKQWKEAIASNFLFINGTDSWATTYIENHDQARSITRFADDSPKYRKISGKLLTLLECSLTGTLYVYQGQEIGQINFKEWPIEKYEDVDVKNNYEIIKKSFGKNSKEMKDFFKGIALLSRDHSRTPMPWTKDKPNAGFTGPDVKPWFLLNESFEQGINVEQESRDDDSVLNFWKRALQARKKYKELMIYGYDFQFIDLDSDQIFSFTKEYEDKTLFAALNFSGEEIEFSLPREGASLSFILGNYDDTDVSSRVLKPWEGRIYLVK
Structure (SMILES),IC50 [1] [µM],other results
"O=C(CCc1ccc(O)c(O)c1)C[C@H](CCc1ccc(O)c(O)c1)O[C@@H]1OC[C@@H](O)[C@H](O)[C@H]1O [Oregonin (17), Oregonin]",144 ± 7.2,
"COc1c2cc(c(OC)c1O)Oc1ccc(cc1)CCC(=O)C[C@H](O)/C=C\2 [Giffonin F (6), Giffonin F]",146 ± 4.3,
"COc1c2cc(c(OC)c1O)Oc1ccc(cc1)[C@@H](O)CC(=O)CC/C=C/2 [Giffonin B (2), Giffonin B]",164 ± 5.2,
"O=C1/C=C/CCc2ccc(O)c(c2)-c2cc(ccc2O)CC1 [Alnusone (21), Alnusone]",154 ± 8.3,
"COc1c2cc(c(OC)c1O)Oc1ccc(cc1)CCC(=O)CC/C=C\2 [Giffonin D (4), Giffonin D]",108 ± 6.1,reduction of H2O2-induced lipid peroxidation [2]: more than 60%; reduction of H2O2/Fe2+-induced lipid peroxidation [2]: > 50%
"O=C1C[C@@H](O)Cc2ccc(O)c(c2)-c2cc(ccc2O)C[C@H](O)[C@H]1O [Giffonin O (15), Giffonin O]",124 ± 11.1,
"O=C1C=CCCc2ccc(OC3OC(CO)C(O)C(O)C3O)c(c2)-c2cc(ccc2OC2OCC(O)C(O)C2O)CC1 (stereo not drawn) [Giffonin I (9), Giffonin I]",105 ± 4.9,
"COc1c(O)cc2cc1Oc1ccc(cc1)CC[C@H](O)/C=C/C=C\2 [Giffonin H (8), Giffonin H]",109 ± 2.9,reduction of H2O2-induced lipid peroxidation [2]: more than 60%; reduction of H2O2/Fe2+-induced lipid peroxidation [2]: > 50%
"COc1cc2cc(c1O)Oc1ccc(cc1)CCC(=O)/C=C/C=C/2 [Giffonin S (20), Giffonin S]",126 ± 8.9,
"O=C1/C=C/CCc2ccc(O)c(c2)Oc2ccc(cc2)CC1 [Giffonin Q (18), Giffonin Q]",127 ± 5.9,
"O=C1CCc2ccc(OC3OC(CO)C(O)C(O)C3O)c(c2)-c2cc(ccc2O)CC(O)C(O)C1O (stereo not drawn) [Giffonin T (22), Giffonin T]",131 ± 6.1,
"COc1c2cc(c(OC)c1O)Oc1ccc(cc1)CCC(=O)CC/C=C/2 [Giffonin A (1), Giffonin A]",184 ± 6.9,
"O=C1CCc2ccc(O)c(c2)-c2cc(ccc2O)C[C@H](O)C[C@@H]1O [Giffonin M (13), Giffonin M]",114 ± 9.7,
"COc1c2cc(c(OC)c1O)Oc1ccc(cc1)[C@@H](O)C[C@@H](O)CC/C=C\2 [Giffonin J (10), Giffonin J]",56.6 ± 9.6,
"COc1c2cc(c(OC)c1O)Oc1ccc(cc1)CC[C@H](O)CC/C=C\2 [Giffonin C (3), Giffonin C]",105 ± 6.9,
"COc1c2cc(c(OC)c1O)Oc1ccc(cc1)[C@@H](O)C[C@@H](O)/C=C/C=C\2 [Giffonin K (11), Giffonin K]",70 ± 3.1,reduction of oxidation of thiol groups and carbonylation in plasma proteins [3]: most active compounds
"O=C1/C=C/C=C/c2ccc(O)c(c2)Oc2ccc(cc2)CC1 [Giffonin R (19), Giffonin R]",128 ± 6.1,
"COc1c2cc(c(OC)c1O)Oc1ccc(cc1)CCCC[C@H](O)/C=C\2 [Giffonin E (5), Giffonin E]",167 ± 4.6,
"COc1c2cc(c(OC)c1O)Oc1ccc(cc1)CC[C@H](O)/C=C/C=C\2 [Giffonin G (7), Giffonin G]",108 ± 9.2,reduction of oxidation of thiol groups and carbonylation in plasma proteins [3]: most active compounds
"O=C1CCc2ccc(O)c(c2)-c2cc(ccc2O)CC(OC2OC(CO)C(O)C(O)C2O)CC1O (stereo not drawn) [Giffonin N (14), Giffonin N]",128 ± 11.3,
"O=C1Cc2ccc(O)c(c2)-c2cc(ccc2O)C[C@@H](O)[C@@H](O)[C@@H](O)[C@H]1O [Giffonin U (23), Giffonin U]",175 ± 9.8,zones of inhibition [4]: completely comparable to those obtained with tetracycline
"O=C1CCc2ccc(O)c(c2)-c2cc(ccc2O)C[C@H](O)[C@H](O)[C@H]1O [Carpinontriol B (24), Carpinontriol B]",107 ± 6.1,zones of inhibition [4]: completely comparable to those obtained with tetracycline
"O=C1CCc2ccc(O)c(c2)-c2cc(ccc2O)CC[C@@H](O)[C@H]1O [Giffonin V (25), Giffonin V]",123 ± 4.4,
"Oc1ccc2cc1-c1cc(ccc1O)C[C@H](O)[C@@H](O)[C@H](O)C[C@@H](O)C2 [Giffonin L (12), Giffonin L]",172 ± 8.9,
"Oc1ccc2cc1-c1cc(ccc1O)C[C@H](O)[C@H](O)C(O)[C@@H](O)[C@H](O)C2 (stereo partly drawn) [Giffonin P (16), Giffonin P]",55.3 ± 7.7,
